A short description of series [1]: Biodistribution of radioactivity after i.v. injection in awake rats. It counts as in vivo, rat. On the procedure: All animal experiments were approved by the Ethical Committee at our institution. Chronic cannulations of rats (male, Sprague Dawley, 180–250 g) were performed in the abdominal aorta and in the vena cava under general anaesthesia (ketamine 35 mg/kg and medetomidin 0.35 mg/kg) following the procedure described by Lestage. The animals were allowed to recover for a minimum of 4 days before being used for metabolism studies. Most of them were injected with the tracer within the first week after surgery. Some of them were kept up to 4 weeks before injection. Twenty hours before the injection of the tracer, the food was removed from the cage. The arterial line was used for blood sampling and the other for i.v. injection of the tracer. The two lines were flushed with saline a few minutes before use in order to check potency. 14 rats (230–410 g) were injected with 20–325 MBq of n-c-a 2-[^18F]Tyr. The tracer was delivered as a bolus of maximum volume 0.75 ml in 15 s. […]
Radioactivity was measured in weighed fractions of plasma. […] The supernatant was analysed by HPLC. Radioactivity was measured in the organ samples and in one half of the three dissected parts of the brain. […] The supernatant was analysed by HPLC.
Radioactivity measurements of the biological samples and of the fractions collected during HPLC were performed with a NaI counter (Cobra II autogamma, Packard).

Series [2] concerns cerebral proteins. The series can be described thus: Incorporation into proteins (TCA precipitation of brain regions) in rats. The format is in vivo, rat.
Experimental: Chronic cannulations of rats (male, Sprague Dawley, 180–250 g) were performed in the abdominal aorta and in the vena cava under general anaesthesia (ketamine 35 mg/kg and medetomidin 0.35 mg/kg) following the procedure described by Lestage [14]. The animals were allowed to recover for a minimum of 4 days before being used for metabolism studies. Most of them were injected with the tracer within the first week after surgery. Some of them were kept up to 4 weeks before injection. Twenty hours before the injection of the tracer, the food was removed from the cage. The arterial line was used for blood sampling and the other for i.v. injection of the tracer. The two lines were flushed with saline a few minutes before use in order to check potency. 14 rats (230–410 g) were injected with 20–325 MBq of n-c-a 2-[^18F]Tyr. The tracer was delivered as a bolus of maximum volume 0.75 ml in 15 s. Samples of blood were obtained via the arterial cannula during the first minutes after the injection and at different times (15, 30, 45, 60 and/or 90 minutes) thereafter. The line was flushed with saline between each sample to avoid any loss of potency and to ensure the homogeneity of the next sample. The animals (n = number of rats) were sacrificed after 30 (n = 2), 60 (n = 5), 90 (n = 3) or 120 (n = 4) minutes. After the final time point, samples of blood were taken and the major organs were dissected. The brain was dissected to obtain striatum, cortex and cerebellum.
Trichloroacetic acid (TCA) was used to precipitate the proteins from biological samples in order to assay the radioactive content associated with proteins and to perform a chromatographic analysis of the radioactive compounds in solution in the supernatant after centrifugation. The solution used for the precipitation was Na2S2O5 100 mg, NaEDTA.2H2O 10 mg, TCA 20 g, dissolved in water up to 100 ml.
Radioactivity was measured in weighed fractions of plasma. For intermediate and final plasma samples, proteins were precipitated with TCA solution and separated by centrifugation (5°C, 5 minutes, 8000 RPM) before counting. The supernatant was analysed by HPLC. Radioactivity was measured in the organ samples and in one half of the three dissected parts of the brain. The second halves were sonicated with water (Sonics & Materials inc., Vibracell VXC-400). The proteins were precipitated with TCA solution and separated by centrifugation (5°C, 5 minutes, 8000 RPM) before counting. The supernatant was analysed by HPLC.
The test system of series [3] is cerebral proteins. On the set-up: method as in PMID 2787848. The note with it: mouse cortex; cited from earlier work.
On the set-up of series [4]: method as in PMID 2787848. As to conditions: cited from earlier work.

Where two headings read alike, the source gives them in different places.

`N[C@@H](Cc1ccc(O)cc1[18F])C(=O)O` [2-[^18F]Tyr, 2-[^18F]fluoro-L-tyrosine]: in series [1] (awake rats, i.v. bolus, n-c-a tracer), the “absolute uptake into rat brain tissue” value is listed as ~ 0.15 %IA/g. The “passage of the blood-brain-barrier” value in series [1] (rats, brain uptake already high at 30 minutes post injection) is on record as “rapidly passes the blood-brain-barrier”. Besides, the “radioactivity associated with proteins, percentage of the total activity in the tissue” value with cerebral proteins [2] (rat cerebellum, 60 minutes) is given as 84%; in the series with cerebral proteins [2] (rat cortex, 60 minutes), 85%; in the series on cerebral proteins [2] (rat striatum, 60 min), 66%; in the series with cerebral proteins [3], 84%. In addition, the “incorporation into proteins, percentage of the total activity” value in the series with cerebral proteins [2] (rats, non dopaminergic rich regions, 120 minutes) is ~90%. The “absolute uptake into brain tissue, mice” value in series [4] (at 40 min) was ~ 1.3 %IA/g; in series [4] (at 60 min) it was ~ 2 %IA/g.
